Experimental data published in patent US6887983B2, “Purified 20 kDA presenilin 2 C-terminal fragment and methods of screening for compounds that inhibit proteolysis of presenilin 2” (The General Hospital Corporation, priority 1997, dated 2005).
Where a SMILES comes first, the peptide text is derived from it. The star is where a group is joined. Cbz = O=C(OCc1ccccc1)*; CH2F = FC*

Tests used:
[1] = tested on: polyubiquitinated PS2; test: Immunoprecipitation of ubiquitin-positive HMW-PS2 with anti-FLAG, anti-ubiquitin immunoblot; assay type: cell-based, human; conditions: 50 μM ALLN; C-terminal FLAG PS2; FIG. 5B
Protocol: (§1) FIG. 5. Polyubiquitination and proteasomal degradation of PS2. […] Detergent-soluble (Soluble) and detergent-resistant fractions (Insoluble) were prepared and analyzed by Western blotting. FIG. 5B) immunoprecipitation of ubiquitin-positive high molecular weight forms of PS2 (HMW-PS2) by anti-FLAG antibodies. […] FIG. SC) binding of PS2 modified with epitope-tagged ubiquitin (H6M-Ub) to nickel affinity columns. Plasmid pCW7 encoding wild-type (H6M-Ub) or pCW8 encoding dominant-negative ubiquitin (H6M-UbK48R) was transiently transfected into uninduced PS2 cells (clone WF2). […] Lysates were subjected to nickel affinity chromatography as described herein and bound materials were analyzed by Western blotting using anti-PS2Loop antibodies.
Protein samples were quantiated by the BCA protein assay kit (Pierce). SDS-PAGE was carried out using 4-20% gradient Tris-glycine gels under reducing conditions. Proteins were transferred to polyvinylidene difluoride membrane (Bio-Rad) using a semi-dry electrotransfer system (Hoefer). The blots were blocked with 5% non-fat dry milk in TBST (25 mM Tris (pH 7.6), 137 mM NaCl, 0.15% Tween 20) for 1.5 h, incbated primary antibodies (M2, 3 μg/ml; D-8, 1 to 1000; polyclonal anti-ubiquitin, 1 to 1000; Ubi-1, 1 to 1500) for 1.5 h, and secondary antibodies (horseradish perodixase-conjugated anti-mouse or rabbit antibodies, 1 to 5000) in TBST. […]

[2] = tested on: polyubiquitinated HMW-PS2; test: Nickel affinity chromatography of PS2 modified with His-tagged ubiquitin, anti-PS2Loop blot; assay type: cell-based, human; conditions: induced cells treated with ALLN
Protocol: as §1
PS2 cells were transiently transfected with ubiquitin constructs either pCW7 (H6M-Ub) or pCW8 (H6M-UbK48R) using LipofectAMINE™ according to the manufacturer's instruction (LifeTtechnologies, Inc.). […] Samples were concentrated by freeze-drying, and PS2 immunoreactivity was detected by Western blotting using anti-PS2Loop antibodies.
To determine whether polyubiquitinated HMW-PS2 serves as a degradation intermediate for the full-length PS2, constructs encoding wild-type (H6M-Ub) and dominant-negative ubiquitin (H6M-UbK48R), tagged with poly((6X)-histidine) were transiently transfected into uninduced cells. […]

[3] = tested on: generation of alternative 14 kDa PS1-CTF; test: Generation of alternative 14 kDa PS1-CTF in inducible H4 cells overexpressing PS1; assay type: cell-based, human; conditions: PS1-overexpressing cell lines
Protocol: FIG. 11. […] Inducible PS1 cells were generated similar to as described herein. High-(clone 1.22) and low-(clone 1.24) expressing clones were grown in the presence or absence of tetracycline for 24 hours. As similar to those shown for PS2, multiple PS1 CTFs were detected in the PS 1-overproducing cells, including 23 kDa endogenous PS1 CTF (arrow e′), transgene-derived normal cleavage product (arrow f′), and aberrant 14 kDa PS1 fragment. (b, c, d) Cleavage of endogenous PS1 CTF during STS-induced apoptosis. Identical samples used for FIG. 8 were stained with αPS1 Loop. PS1 CTF was further cleaved into smaller 14 kDa fragment during apoptotic process. […] Asterisk indicates non-specific bands.
The point mutations in the potential aspartate cleavage sites of PS2 (D326A and D329A) and control aspartate (D308A) were introduced into a PS2 open reading frame by site-directed mutagenesis using Muta-Gene phagemid kit (BioRad). The inducible construct encoding the full-length PS1 with 3′ FLAG epitope sequence was generated as described for PS2 herein. […]
Next, whether PS1, a closely related homologue of PS2, also undergoes alternative cleavage when overexpressed and/or during apoptosis was tested. […] However, in the clonal cell line expressing lower levels of PS1 (clone IF24), full-length PS1 and the normal CTF were predominantly detected while the alternative 14 kDa CTF fragment was not detectable.

[4] = tested on: endogenous PS2 cleavage in H4 human neuroglioma cells; test: Apoptotic cleavage of endogenous PS2 in untransfected H4 cells (staurosporine or etoposide), Western blot
Protocol: H4 human neuroglioma cells were treated with 1 μM STS for timed intervals indicated on the top panels and lysates were analyzed by Western blotting using αPS2Loop along with antibodies to poly(ADP-ribose) polymerase (PARP), CPP32, and HSP70. […] Cells were pre-treated with inhibitors for 1 hour, further incubated in the presence or absence of 2 μM STS (b) or 20 μM etoposide for 18 hours. and lysates were analyzed by Western blotting. […] (e) Dose-response curves of the effect of zVAD-fmk (Δ) and zDEVD-fmk (o) on STS-induced apoptotic cleavage of PS2. Relative amounts of 20 kDa PS2 fragments from the cells co-treated with 1 μM STS (18 hours) plus either zVAD-fmk or zDEVD-fmk were measured by the transmittance analysis of the Western blot as described (Bush, A. I., et al., Ann. Neurol. 32:57-65 (1992)). The amounts of 20 kDa fragment from the cells treated with STS alone were standardized as 100%. With the exception of (d) (4-20% gradient gel), all SDS-PAGE were performed using 16% gels.
(§2) For some experiments, protein quantitation, SDS-PAGE (4-20% or 16%) and Western blotting were carried out as described, supra, with the exception of using the lysis buffer (10 mM Tris-HCl [pH 7.4], 150 mM NaCl, 1% Triton X-100, 0.5% NP-40, 5 mM EDTA plus either 0.3% SDS or 1% Sarkosyl) with protease inhibitors, allowing for the efficient extraction of the 20 kDa C-terminal fragment from the detergent-resistant fractions.

[5] = tested on: full-length 54 kDa PS2 cleavage; test: Cleavage of full-length PS2 during etoposide-induced apoptosis in inducible H4 cells (N-terminal FLAG PS2); assay type: cell-based, human; conditions: increasing concentrations of inhibitor, 20 μM etoposide; FIG. 8
Protocol: FIG. 8. Cleavage of full-length 54 kDa PS2 by a zVAD-sensitive protease activated during etoposide-induced apoptosis. Inducible H4 cells expressing PS2 containing N-terminal FLAG epitope were induced for 12 hours and further incubated with media containing 20 μM etoposide. Alternative (34 kDa NTF) and normal (f; 30 kDa) N-terminal cleavage products detected by anti-FLAG antibody and alternative (20K CTF) and endogenous plus normal C-terminal cleavage products (e/f) detected by αPS2Loop were indicated by arrows.
Thus, whether the alternative PS2-CTF was generated from full-length 54 kDa PS2 during apoptosis was tested. […] The alternative NTF was 34 kDa while the “normal” NTF, labeled as band f in the top panel of FIG. 8, was 30 kDa. The alternative PS2 cleavage fragments were first observed at 3 hours post-treatment with etoposide.

[6] = tested on: generation of the 20 kDa PS2-CTF; test: Generation of 20 kDa PS2-CTF in H4 cells overexpressing PS2, Western blot with αPS2Loop; conditions: FIG. 7d; for generation of the 20 kDa PS2-CTF: cells overexpressing PS2, induced 24 h, inhibitor added at induction
Protocol: Aberrant 20 kDa PS2 C-terminal fragment (CTF) in transfected cells. (a) Detection of the endogenous PS2 CTF in human brain. […] (b) Detection of multiple PS2 CTFs in the inducible H4 cells overexpressing C-terminal epitope-tagged PS2 by Western blotting using αPS2Loop. […] (c) Selective localization of the 20 kDa CTF in the non-ionic detergent-resistant cellular fraction. Wild-type PS2 cells were induced for 48 hours, fractionated into detergent-insoluble/resistant (lane 2) and detergent soluble (lane 3) fractions and wash (lane 4), and then analyzed by Western blotting with αPS2Loop. Total SDS lysates are shown in lane 1. […] The zFA-fmk (cathepsin B inhibitor) was used as a control for fluoromethylketone (fmk) group. […] Inducible PS2 were grown in the presence (Uninduced, left panel) or absence (Induced, right panel) of tetracycline for 24 hours, and inhibitors or solvent (DMSO) were added at the time of the induction.
as §2

[7] = tested on: endogenous PS1 cleavage; test: Apoptosis-associated cleavage of endogenous PS1 in H4 cells; assay type: cell-based, human; conditions: STS- or etoposide-induced, FIGS. 11c and 11d
Protocol: FIG. 11. […] Inducible PS1 cells were generated similar to as described herein. High-(clone 1.22) and low-(clone 1.24) expressing clones were grown in the presence or absence of tetracycline for 24 hours. […] Identical samples used for FIG. 8 were stained with αPS1 Loop. […] Asterisk indicates non-specific bands.
Whether endogenous PS1 is cleaved by CP32-like proteases following induction of apoptosis was also tested.

| Compound | Ubiquitin-positive HMW-PS2 [1] | polyubiquitinated HMW-PS2 bound to nickel column ([2]; transfected with H6M-Ub, FIG. 5C lane 10) | polyubiquitinated HMW-PS2 bound to nickel column ([2]; transfected with dominant-negative H6M-UbK48R, FIG. 5C lane 12) | generation of alternative 14 kDa PS1-CTF [3] | concentration equally effective in inhibiting apoptosis-induced cleavage of PS2 ([4]; 1 μM STS 18 h, relative amount of 20 kDa fragment, FIG. 9e) | normal processing of PS2 (generation of 25 kDa endogenous fragment) ([4]; H4 cells undergoing apoptosis) | STS-induced or etoposide-induced cleavage of PS2, PARP, and pro-CPP32 ([4]; H4 cells, 2 μM STS or 20 μM etoposide 18 h, FIG. 9b, c) | alternative cleavage of endogenous PS2 during staurosporine-induced or etoposide-induced apoptosis ([4]; H4 cells, inhibitor pre-treatment 1 h, 2 μM STS or 20 μM etoposide 18 h, FIGS. 9b-9d) | generation of both alternative PS2 cleavage products [5] | generation of the 20 kDa PS2-CTF [6] | generation of the 20 kDa PS2-CTF ([6]; listed as zVAD) | levels of the endogenous 25 kDa CTF, the 26 kDa transgene-derived CTF, or other PS2 species ([6]; cells overexpressing PS2) | apoptosis-associated cleavage of endogenous PS1 [7] | apoptosis-associated cleavage of endogenous PS1 ([7]; listed as zVAD) |
| --- | --- | --- | --- | --- | --- | --- | --- | --- | --- | --- | --- | --- | --- | --- |
| N-acetyl-L-leucinal-L-norleucinal [ALLN] | significantly increased | abundant amounts of polyubiquitinated HMW-PS2 | a small amount of polyubiquitinated HMW-PS2 |  |  |  |  |  |  |  |  |  |  |  |
| COC(=O)C[C@H](NC(=O)[C@H](C)NC(=O)[C@@H](NC(=O)OCc1ccccc1)C(C)C)C(=O)CF [zVAD-fmk] (Cbz-Val-Ala-Asp(OMe)-CH2F) |  |  |  | blocked | 25 µM | no effect on normal processing of PS2 | Inhibition of STS-induced (b) or etoposide-induced (c) cleavage of PS2, PARP, and pro-CPP32 | specifically blocked | inhibited the generation of both alternative cleavage products | blocked | blocked the generation of the 20 kDa PS2-CTF | no effect | Inhibition of STS-induced (c) and etoposide-induced (d) PS1 cleavage | blocked |
